What was measured:
[1] = target: NMDA (NR2B) (Homo sapiens, UniProt Q05586+Q13224); test: Off‐target panel: NMDA (NR2B); format: cell-based
Procedure: (§1) GSK716 selectivity and PK properties were profiled in order to investigate the suitability of GSK716 for progression into in vivo studies and the potential for taking it forward as a clinical candidate for testing in humans. Since GSK716 results in loss of inhibitory activity of α1‐antitrypsin, the effect of the compound was assessed on other closely related serpins. […] Furthermore, there were no off‐target effects in a panel of assays considered predictive of known safety liabilities that precluded further development of GSK716 (Table EV1).

[2] = target: PDE3A (Homo sapiens, UniProt Q14432); test: Off‐target panel: PDE3A; format: biochemical; settings: Inhibition, read-out: Mean (PXC50)
Chain of PDE3A (Q14432 whole entry, species assumed): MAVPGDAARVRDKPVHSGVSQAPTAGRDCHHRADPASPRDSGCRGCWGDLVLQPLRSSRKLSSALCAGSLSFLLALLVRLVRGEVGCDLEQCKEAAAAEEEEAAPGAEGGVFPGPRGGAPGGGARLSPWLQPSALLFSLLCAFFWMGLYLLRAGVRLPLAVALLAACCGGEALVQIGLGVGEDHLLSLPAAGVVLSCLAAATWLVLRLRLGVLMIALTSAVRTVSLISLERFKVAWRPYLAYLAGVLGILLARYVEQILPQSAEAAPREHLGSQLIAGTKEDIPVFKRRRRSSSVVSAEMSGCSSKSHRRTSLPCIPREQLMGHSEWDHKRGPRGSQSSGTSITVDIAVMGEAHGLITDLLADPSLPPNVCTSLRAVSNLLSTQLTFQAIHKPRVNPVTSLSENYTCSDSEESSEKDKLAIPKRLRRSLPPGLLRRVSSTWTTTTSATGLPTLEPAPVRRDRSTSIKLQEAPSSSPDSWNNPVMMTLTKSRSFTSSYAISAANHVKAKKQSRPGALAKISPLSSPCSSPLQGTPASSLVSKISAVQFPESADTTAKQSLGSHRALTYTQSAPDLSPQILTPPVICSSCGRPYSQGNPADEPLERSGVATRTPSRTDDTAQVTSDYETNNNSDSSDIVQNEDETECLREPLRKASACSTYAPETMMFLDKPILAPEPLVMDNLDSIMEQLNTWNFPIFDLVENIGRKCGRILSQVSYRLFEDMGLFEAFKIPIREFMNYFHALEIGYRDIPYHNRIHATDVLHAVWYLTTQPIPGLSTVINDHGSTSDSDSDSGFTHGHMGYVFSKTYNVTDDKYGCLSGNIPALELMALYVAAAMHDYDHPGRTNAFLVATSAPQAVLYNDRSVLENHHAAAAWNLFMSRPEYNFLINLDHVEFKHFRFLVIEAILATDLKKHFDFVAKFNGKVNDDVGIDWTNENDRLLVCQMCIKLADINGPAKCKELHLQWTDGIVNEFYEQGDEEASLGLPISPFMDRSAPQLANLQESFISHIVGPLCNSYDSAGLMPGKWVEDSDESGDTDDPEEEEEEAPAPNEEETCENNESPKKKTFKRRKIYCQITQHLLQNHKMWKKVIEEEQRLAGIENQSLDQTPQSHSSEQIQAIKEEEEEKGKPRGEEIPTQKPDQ
Procedure: as §1

[3] = target: T1, Serotonin 5HT2C (Homo sapiens, UniProt P28335); test: Off‐target panel: Serotonin 5HT2C (DRX); format: cell-based
T1 sequence (P28335 33-458): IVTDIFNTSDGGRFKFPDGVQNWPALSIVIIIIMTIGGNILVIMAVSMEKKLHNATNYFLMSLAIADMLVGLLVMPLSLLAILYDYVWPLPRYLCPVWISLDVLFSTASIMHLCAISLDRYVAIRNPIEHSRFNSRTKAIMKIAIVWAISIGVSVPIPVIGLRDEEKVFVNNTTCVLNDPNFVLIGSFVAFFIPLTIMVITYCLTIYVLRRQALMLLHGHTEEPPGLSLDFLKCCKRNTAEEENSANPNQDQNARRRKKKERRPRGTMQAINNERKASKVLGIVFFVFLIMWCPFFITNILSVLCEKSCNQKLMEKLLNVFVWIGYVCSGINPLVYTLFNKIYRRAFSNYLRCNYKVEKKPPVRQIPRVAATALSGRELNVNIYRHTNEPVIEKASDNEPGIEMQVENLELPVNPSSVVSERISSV
Procedure: as §1

[4] = target: Z α1‐antitrypsin (Homo sapiens, UniProt P01009, E366K); test: Circulating monomeric Z α1‐antitrypsin in plasma of Z α1‐antitrypsin transgenic mice; format: in vivo, mouse; set-up: random insertion of the human Z α1‐antitrypsin gene; from tissue; host or cells: hemizygous Z α1-antitrypsin transgenic mice (liver, plasma)
Chain of Z α1‐antitrypsin (P01009 25-418 E366K): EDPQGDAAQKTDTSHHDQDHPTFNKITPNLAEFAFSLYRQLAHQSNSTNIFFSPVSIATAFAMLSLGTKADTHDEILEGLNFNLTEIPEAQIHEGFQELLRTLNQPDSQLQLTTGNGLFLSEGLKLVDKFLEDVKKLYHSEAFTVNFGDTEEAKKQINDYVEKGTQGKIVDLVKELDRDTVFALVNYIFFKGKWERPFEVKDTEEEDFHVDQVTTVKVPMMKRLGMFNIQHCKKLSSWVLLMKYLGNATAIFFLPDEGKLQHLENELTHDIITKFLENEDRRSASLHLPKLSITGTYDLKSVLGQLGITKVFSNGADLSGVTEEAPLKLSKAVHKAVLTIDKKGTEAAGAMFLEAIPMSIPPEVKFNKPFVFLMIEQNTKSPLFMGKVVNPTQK
Procedure: GSK716 was evaluated in a transgenic mouse model with an engineered random insertion of the human Z α1‐antitrypsin gene (Teckman et al, 2004). […] Further, older mice have larger α1‐antitrypsin inclusions that may be more difficult to reverse and any changes would be more difficult to detect than in younger animals. The PK‐PD relationship of GSK716 was explored by dosing Z α1‐antitrypsin transgenic animals with 10, 30 or 100 mg/kg GSK716 three times a day. Blood and liver were harvested on day 6 at 3 h (~ C max) and 8 h (C min) after the dose for the measurement of total and free drug in both tissues. Blood was also harvested for the measurement of monomeric Z α1‐antitrypsin in plasma. Total concentrations of GSK716 were determined by LC‐MS/MS, and the free drug in both tissues was determined using equilibrium dialysis to determine free fraction in the samples, subsequently used to derive unbound concentrations. […] Both free and total drug concentrations of GSK716 at the targeted site of action in the liver were equivalent to those in blood (Table 2).
A significant fraction of the total Z α1‐antitrypsin in the circulation is in the polymeric conformation (Tan et al, 2014). There are no antibodies that are specific for monomeric Z α1‐antitrypsin and so to directly determine its concentration, a deconvolution method was developed based on immunoassays with antibodies for either total or polymeric α1‐antitrypsin, and calibration curves with purified monomeric and polymeric Z α1‐antitrypsin. Monomeric Z α1‐antitrypsin was measured in plasma samples following 6 days of dosing, and levels were normalised to each animals’ pre‐dose control levels to account for the natural variation of Z α1‐antitrypsin between animals. […] Total drug levels and changes in Z α1‐antitrypsin following 3 days of dosing were indistinguishable from those following 6 days of dosing. There was no effect on circulating serum albumin after 5 days of dosing which provides evidence that GSK716 is specific for Z α1‐antitrypsin. Moreover, the effects are not mediated by metabolites of GSK716 as the major metabolites have much reduced or no binding to α1‐antitrypsin.
Plasma standards of monomeric and polymeric Z α1‐antitrypsin were prepared and assayed with an antibody mix comprising a 1:160 dilution of rabbit polyclonal anti‐ α1‐antitrypsin (Abcam product 9373), 0.23 µg/ml terbium anti‐mouse, 4.5 µg/ml Alexa488 goat anti‐rabbit, 0.17 µg/ml mouse anti‐total‐ α1‐antitrypsin monoclonal 3C11 and 2 µg/ml mouse 2C1 anti‐polymeric‐ α1‐antitrypsin. After a 16‐h incubation at 20°C, TR‐FRET detection was performed on an Envision plate reader (Perkin Elmer).
Plots of the FRET ratio (acceptor/donor signal) versus sample dilution result in bell‐shaped curves due to the hook effect. The polymer Z α1‐antitrypsin concentration was determined by comparing the peak positions of these bell‐shaped curves for plasma samples with those for polymer calibration samples. The polymer concentration in the plasma sample and the polymer calibration curve was then used to derive the contribution of polymer to the FRET signal in the total α1‐antitrypsin assay at the signal peak, enabling determination of the concentration of monomeric Z α1‐antitrypsin.
Hemizygous female Z α1‐antitrypsin transgenic mice were 13–15 weeks of age at start of study. Drugs were administered via oral gavage three times a day at 8‐h intervals at 10 ml/Kg as a suspension in aqueous methylcellulose containing 0.5% w/v Tween 80. […]

Chain of NMDA (NR2B) (Q13224 27-1484, species assumed, other chains not shown): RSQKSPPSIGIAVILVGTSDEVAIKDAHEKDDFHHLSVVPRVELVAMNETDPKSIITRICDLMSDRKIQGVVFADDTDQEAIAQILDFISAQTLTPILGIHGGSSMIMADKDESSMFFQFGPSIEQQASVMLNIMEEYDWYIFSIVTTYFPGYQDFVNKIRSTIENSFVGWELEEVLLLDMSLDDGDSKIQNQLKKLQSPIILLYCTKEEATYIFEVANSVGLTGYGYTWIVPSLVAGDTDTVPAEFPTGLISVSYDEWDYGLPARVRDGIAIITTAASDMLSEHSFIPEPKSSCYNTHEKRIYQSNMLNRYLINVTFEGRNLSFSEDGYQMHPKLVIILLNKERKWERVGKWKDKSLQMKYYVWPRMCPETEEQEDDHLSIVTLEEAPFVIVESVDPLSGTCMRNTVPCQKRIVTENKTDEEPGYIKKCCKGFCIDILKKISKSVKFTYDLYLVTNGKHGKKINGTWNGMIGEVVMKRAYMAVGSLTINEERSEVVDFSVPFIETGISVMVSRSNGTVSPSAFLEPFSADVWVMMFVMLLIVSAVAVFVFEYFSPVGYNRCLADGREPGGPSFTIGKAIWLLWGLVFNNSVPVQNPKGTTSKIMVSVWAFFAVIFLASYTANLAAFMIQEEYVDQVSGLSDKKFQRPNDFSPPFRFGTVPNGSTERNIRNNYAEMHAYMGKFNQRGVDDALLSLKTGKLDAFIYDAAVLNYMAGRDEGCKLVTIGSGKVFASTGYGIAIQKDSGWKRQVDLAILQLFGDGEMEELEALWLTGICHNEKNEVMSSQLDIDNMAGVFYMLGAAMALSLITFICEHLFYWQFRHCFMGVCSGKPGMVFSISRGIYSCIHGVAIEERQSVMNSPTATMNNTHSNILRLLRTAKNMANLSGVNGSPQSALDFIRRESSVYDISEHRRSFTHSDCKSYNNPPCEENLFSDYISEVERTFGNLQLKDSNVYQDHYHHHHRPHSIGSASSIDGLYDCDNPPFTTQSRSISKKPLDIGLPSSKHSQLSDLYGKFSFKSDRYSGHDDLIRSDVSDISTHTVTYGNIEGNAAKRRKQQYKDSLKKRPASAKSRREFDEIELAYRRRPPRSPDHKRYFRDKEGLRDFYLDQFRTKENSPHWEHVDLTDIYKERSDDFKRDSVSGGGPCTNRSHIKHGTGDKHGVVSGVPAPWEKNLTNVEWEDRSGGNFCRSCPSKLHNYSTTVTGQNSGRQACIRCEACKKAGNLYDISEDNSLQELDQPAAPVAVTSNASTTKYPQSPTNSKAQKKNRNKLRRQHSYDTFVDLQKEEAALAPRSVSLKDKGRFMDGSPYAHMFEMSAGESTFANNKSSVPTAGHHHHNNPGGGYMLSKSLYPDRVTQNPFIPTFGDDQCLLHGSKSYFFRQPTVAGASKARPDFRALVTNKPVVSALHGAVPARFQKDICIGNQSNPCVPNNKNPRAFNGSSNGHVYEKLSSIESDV

## CCC[C@@H](NC(=O)c1cccc2c1CC(=O)N2)[C@@H](O)c1cccc(F)c1C [GSK716]
[1]
  IC50: > 50.1 µM
[2]
  IC50: > 100 µM
[3]
  EC50: > 100 µM
  IC50: 50.1 µM
[4]; 10 mg/kg three times a day, oral, 6 days of dosing
  change in circulating Z α1‐antitrypsin: significant, dose‐dependent increases
[4]; 30 mg/kg three times a day, oral, 6 days of dosing
  change in circulating Z α1‐antitrypsin: significant, dose‐dependent increases
[4]; 100 mg/kg three times a day, days 15 and 21 of dosing
  mean increase of monomeric Z α1‐antitrypsin in plasma over pre‐dosing baseline: sevenfold to eightfold
[4]; 100 mg/kg three times a day, oral, 6 days of dosing
  mean increase in circulating monomeric Z α1‐antitrypsin levels over pre‐dose: sevenfold
[4]; Z α1‐antitrypsin transgenic mice, within 3 days
  increase in circulating levels of Z α1‐antitrypsin: sevenfold
